Test results taken from US20230022841A1, “ISARIDIN CYCLODEPSIPEPTIDE DERIVATIVES, AND PREPARATION AND APPLICATION THEREOF” (Sun Yat-sen University, priority 2022, published 2023).

Legend:
[1] = tested on: ADP-induced platelet aggregation; assay: ADP-induced platelet aggregation in vitro (platelet-rich plasma, turbidimetric method); assay type: cell-based, Kunming mice; details: 5 min; mouse platelet-rich plasma, ADP inducer, 37° C., maximum aggregation rate within 5 min; values stated as approximate; read-out: IC50, inhibition of ADP-induced platelet aggregation
Procedure: Compounds I-1 to I-9 and I-13 to I-15 prepared in Example 1 were tested for their inhibitory effects on the ADP-induced platelet aggregation in vitro to evaluate the anti-thrombotic activities, and the test process was specifically described as follows.
Kunming mice were anesthetized with pentobarbital sodium, and blood was collected from the celiac artery, where the syringe was added with 3.2% sodium citrate for anti-coagulation in advance (a volume ratio of whole blood to the anticoagulant was 9:1). The mixture was gently mixed and centrifuged at 1000 r/min for 10 min to collect the supernatant as the platelet-rich plasma (PRP). The remaining part was centrifuged at 3000 r/min for 10 min to obtain platelet-poor plasma (PPP). […]
For the blank control group, 1% DMSO was mixed with 295 μL of PRP; for the drug group, 5 μL of the isaridin derivatives with different concentrations (a final concentration of 0-100 μM) was mixed with 295 μL of PRP; and regarding the positive control group, aspirin was mixed with plasma to a final concentration of 120 μM. […] Three parallel samples were tested for each group, and the platelet aggregation rate was measured at 37° C. by turbidimetric method, where the maximum aggregation rate within 5 min was recorded.
The platelet aggregation rate was expressed as the maximum platelet aggregation rate, and the results were expressed as the inhibition rate. […]

[2] = tested on: LPS-induced RAW264.7 cells; assay: NO release from LPS-induced macrophage RAW264.7 cells (Griess); assay type: cell-based; details: Mus musculus, LPS 1 μg/mL, 24 h, Griess reagent, read-out: half maximal inhibitory concentration (IC50), NO release inhibition
Procedure: The effect of the compounds I-1 to I-9 and I-13 to I-15 prepared in Example 1 on the NO release from LPS-induced macrophage RAW264.7 cells was investigated to evaluate the anti-inflammatory activity, which was specifically described as follows.
Lipopolysaccharide (LPS); indomethacin (Indomethacin, Indo, positive control); mouse mononuclear macrophages (RAW264.7); dimethyl sulfoxide (DMSO); Methylthiazolyldiphenyl-tetrazolium bromide (MTT, 5 mg/mL); and Griess reagent nitrite measurement kit (Beyotime Biotechnology Co., Ltd).
The compounds were respectively dissolved in DMSO to obtain a series of 10 mM stock solutions, which were diluted with Dulbecco's modified eagle medium (DMEM) to a required concentration (DMSO<2%) for use.
RAW264.7 cells (1×10^5 cells/mL) were inoculated into a 96-well plate at 100 μL per well and incubated at 37° C. and 5% CO2 for 12 h. Different concentrations of samples containing LPS (with a final concentration of 1 μg/mL) were respectively loaded on the plate. […] After that, the absorbance of each well of the 96-well plate at 540 nm was measured with a microplate reader and then plugged into the standard curve to calculate the NO release level. […]

| IC50 [1] | IC50 [2] | Structure (SMILES) |
| --- | --- | --- |
| 120 µM |  | CC(=O)Oc1ccccc1C(=O)O [aspirin] |
|  | 38 µM | COc1ccc2c(c1)c(CC(=O)O)c(C)n2C(=O)c1ccc(Cl)cc1 [indomethacin] |
